Data from patent publication US12581252B2, “Substituted pyrrolo[3,4-b]pyridines as PI3K-α inhibitors” (Relay Therapeutics, Inc., priority 2020, dated 2026).

Legend:
H1047R PIK3CA enzyme = H1047R PIK3CA enzyme (Homo sapiens, UniProt P42336, H1047R); experiment: ADP-Glo Biochemical PIK3CA Kinase Assay
cells = conditions: Homo sapiens, MCF-10A, read-out: MCF10A IC50

H1047R PIK3CA enzyme, sequence (P42336 whole entry H1047R): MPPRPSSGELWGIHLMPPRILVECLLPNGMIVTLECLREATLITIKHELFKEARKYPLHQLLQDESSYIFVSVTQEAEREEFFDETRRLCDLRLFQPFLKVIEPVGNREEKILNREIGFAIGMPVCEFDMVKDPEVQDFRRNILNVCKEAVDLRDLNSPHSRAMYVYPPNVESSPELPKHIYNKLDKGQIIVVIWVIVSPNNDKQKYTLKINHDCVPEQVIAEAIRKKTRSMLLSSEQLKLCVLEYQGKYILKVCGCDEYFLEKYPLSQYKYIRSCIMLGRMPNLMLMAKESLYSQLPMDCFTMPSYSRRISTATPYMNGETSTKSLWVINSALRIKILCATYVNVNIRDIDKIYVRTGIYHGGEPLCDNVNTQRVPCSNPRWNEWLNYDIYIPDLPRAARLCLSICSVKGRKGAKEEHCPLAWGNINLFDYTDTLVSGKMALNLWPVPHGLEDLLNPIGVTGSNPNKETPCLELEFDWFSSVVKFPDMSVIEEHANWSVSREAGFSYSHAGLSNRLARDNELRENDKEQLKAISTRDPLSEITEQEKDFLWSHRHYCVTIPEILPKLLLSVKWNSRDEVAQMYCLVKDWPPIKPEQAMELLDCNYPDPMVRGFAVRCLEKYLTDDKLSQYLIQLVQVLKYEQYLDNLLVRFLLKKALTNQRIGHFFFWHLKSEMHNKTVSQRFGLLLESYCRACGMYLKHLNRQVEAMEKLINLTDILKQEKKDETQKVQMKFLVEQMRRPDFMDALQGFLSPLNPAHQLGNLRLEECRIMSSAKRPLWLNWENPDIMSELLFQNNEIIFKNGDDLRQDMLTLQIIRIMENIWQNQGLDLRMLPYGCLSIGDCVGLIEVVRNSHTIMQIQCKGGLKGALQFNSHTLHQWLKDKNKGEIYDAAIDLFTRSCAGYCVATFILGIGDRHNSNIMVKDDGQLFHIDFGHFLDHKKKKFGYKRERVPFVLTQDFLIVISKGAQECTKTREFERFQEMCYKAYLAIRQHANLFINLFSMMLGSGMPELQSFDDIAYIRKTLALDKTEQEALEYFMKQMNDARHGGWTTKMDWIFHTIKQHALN
H1047R PIK3CA enzyme, sequence (P27986 whole entry partner): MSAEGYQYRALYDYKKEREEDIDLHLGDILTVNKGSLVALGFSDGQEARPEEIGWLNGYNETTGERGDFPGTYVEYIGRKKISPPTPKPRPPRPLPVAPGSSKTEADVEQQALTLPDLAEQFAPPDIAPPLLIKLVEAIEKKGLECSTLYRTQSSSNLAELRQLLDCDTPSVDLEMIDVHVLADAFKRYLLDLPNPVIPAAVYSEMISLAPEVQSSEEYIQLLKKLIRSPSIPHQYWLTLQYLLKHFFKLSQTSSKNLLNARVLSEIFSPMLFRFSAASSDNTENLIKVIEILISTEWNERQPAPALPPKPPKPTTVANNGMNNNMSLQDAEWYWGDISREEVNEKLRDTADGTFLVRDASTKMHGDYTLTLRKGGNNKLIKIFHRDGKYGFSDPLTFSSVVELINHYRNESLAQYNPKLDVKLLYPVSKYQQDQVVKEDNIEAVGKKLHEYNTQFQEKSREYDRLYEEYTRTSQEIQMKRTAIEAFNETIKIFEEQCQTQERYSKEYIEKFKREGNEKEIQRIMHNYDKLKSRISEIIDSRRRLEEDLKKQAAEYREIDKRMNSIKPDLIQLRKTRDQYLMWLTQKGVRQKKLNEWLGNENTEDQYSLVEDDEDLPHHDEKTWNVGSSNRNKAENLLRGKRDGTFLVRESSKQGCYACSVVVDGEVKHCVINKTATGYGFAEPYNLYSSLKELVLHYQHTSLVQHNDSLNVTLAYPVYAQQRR

Compound	IC50 (H1047R PIK3CA enzyme)	IC50 (cells)
Cc1nocc1Nc1cc(NC(=O)c2cc(F)cc(C(F)(F)F)c2)c2c(c1)C(=O)NC2c1cc(F)ccc1Cl (centres unmarked) [Compound I-856]	≤ 100 nM	< 1000 nM
O=C(Nc1cc(-c2ccn[nH]2)cc2c1[C@H](c1cc(F)ccc1Cl)NC2=O)c1cc(F)cc(C(F)(F)F)c1 [Compound I-865]	≤ 100 nM	< 1000 nM
N#CC1(CNc2cc(NC(=O)c3cc(F)cc(C(F)(F)F)c3)c3c(c2)C(=O)N[C@H]3c2cc(F)ccc2Cl)CC1 [Compound I-868]	≤ 100 nM	< 1000 nM
O=C(Nc1cc(-c2cn[nH]c2)cc2c1C(c1cc(F)ccc1Cl)NC2=O)c1cc(F)cc(C(F)(F)F)c1 (centres unmarked) [Compound I-878]	≤ 100 nM	< 1000 nM
COc1ncc(-c2cc(NC(=O)c3cc(F)cc(C(F)(F)F)c3)c3c(c2)C(=O)N[C@H]3c2cc(F)ccc2Cl)cn1 [Compound I-882]	≤ 100 nM	< 1000 nM
O=C(Nc1cc(-c2cnc3nccn3c2)cc2c1[C@H](c1cc(F)ccc1Cl)NC2=O)c1cc(F)cc(C(F)(F)F)c1 [Compound I-884]	≤ 100 nM	< 1000 nM
O=C(Nc1cc(-c2ccncc2F)cc2c1C(c1cc(F)ccc1Cl)NC2=O)c1cc(F)cc(C(F)(F)F)c1 (centres unmarked) [Compound I-887]	≤ 100 nM	< 1000 nM
O=C(Nc1cc(-c2ccc3ncccc3c2)cc2c1[C@H](c1cc(F)ccc1Cl)NC2=O)c1cc(F)cc(C(F)(F)F)c1 [Compound I-894]	≤ 100 nM	< 1000 nM
CC(C)(O)CNc1cc(NC(=O)c2cc(F)cc(C(F)(F)F)c2)c2c(c1)C(=O)N[C@@H]2c1cc(F)ccc1Cl [Compound I-900]	≤ 100 nM	< 1000 nM
Cn1cccc(-c2cc(NC(=O)c3cc(F)cc(C(F)(F)F)c3)c3c(c2)C(=O)NC3c2cc(F)ccc2Cl)c1=O (centres unmarked) [Compound I-901]	100 to 500 nM	1000 to 5000 nM
O=C(Nc1cc(-c2cccc3cnccc23)cc2c1C(c1cc(F)ccc1Cl)NC2=O)c1cc(F)cc(C(F)(F)F)c1 (centres unmarked) [Compound I-902]	≤ 100 nM	< 1000 nM
O=C(Nc1cc(-c2cnn(C3CNC3)c2)cc2c1C(c1cc(F)ccc1Cl)NC2=O)c1cc(F)cc(C(F)(F)F)c1 (centres unmarked) [Compound I-903]	≤ 100 nM	10000 to 36000 nM
O=C(Nc1cc(-c2cnn(C3COC3)c2)cc2c1C(c1cc(F)ccc1Cl)NC2=O)c1cc(F)cc(C(F)(F)F)c1 (centres unmarked) [Compound I-904]	≤ 100 nM	< 1000 nM
O=C(Nc1cc(-c2ccc3nccn3n2)cc2c1C(c1cc(F)ccc1Cl)NC2=O)c1cc(F)cc(C(F)(F)F)c1 (centres unmarked) [Compound I-905]	≤ 100 nM	< 1000 nM
Cn1nccc1-c1cc(NC(=O)c2cc(F)cc(C(F)(F)F)c2)c2c(c1)C(=O)NC2c1cc(F)ccc1Cl (centres unmarked) [Compound I-906]	≤ 100 nM	< 1000 nM
O=C(Nc1cc(I)cc2c1C(c1cc(F)ccc1Cl)NC2=O)c1cc(F)cc(C(F)(F)F)c1 (centres unmarked) [Compound I-913]	≤ 100 nM	< 1000 nM
CSCc1cc(NC(=O)c2cc(F)cc(C(F)(F)F)c2)c2c(c1)C(=O)NC2c1cc(F)ccc1Cl (centres unmarked) [Compound I-914]	≤ 100 nM	< 1000 nM
O=C(Nc1cc(-c2ncco2)cc2c1C(c1cc(F)ccc1Cl)NC2=O)c1cc(F)cc(C(F)(F)F)c1 (centres unmarked) [Compound I-915]	≤ 100 nM	< 1000 nM
O=C(Nc1cc(-c2ccc[nH]c2=O)cc2c1C(c1cc(F)ccc1Cl)NC2=O)c1cc(F)cc(C(F)(F)F)c1 (centres unmarked) [Compound I-916]	≤ 100 nM	< 1000 nM
Cn1cc(Nc2cc(NC(=O)c3cc(F)cc(C(F)(F)F)c3)c3c(c2)C(=O)NC3c2cc(F)ccc2Cl)cn1 (centres unmarked) [Compound I-917]	≤ 100 nM	< 1000 nM
O=C(Nc1cc(-c2ncc[nH]2)cc2c1[C@H](c1cc(F)ccc1Cl)NC2=O)c1cc(F)cc(C(F)(F)F)c1 [Compound I-919]	≤ 100 nM	< 1000 nM
O=C(Nc1cc(-c2cscn2)cc2c1C(c1cc(F)ccc1Cl)NC2=O)c1cc(F)cc(C(F)(F)F)c1 (centres unmarked) [Compound I-920]	≤ 100 nM	< 1000 nM
O=C(Nc1cc(-c2nccs2)cc2c1C(c1cc(F)ccc1Cl)NC2=O)c1cc(F)cc(C(F)(F)F)c1 (centres unmarked) [Compound I-921]	≤ 100 nM	< 1000 nM
Cn1nccc1Nc1cc(NC(=O)c2cc(F)cc(C(F)(F)F)c2)c2c(c1)C(=O)NC2c1cc(F)ccc1Cl (centres unmarked) [Compound I-922]	≤ 100 nM	< 1000 nM
Cc1noc(C)c1Nc1cc(NC(=O)c2cc(F)cc(C(F)(F)F)c2)c2c(c1)C(=O)NC2c1cc(F)ccc1Cl (centres unmarked) [Compound I-923]	≤ 100 nM	< 1000 nM
Cc1nn(C)cc1Nc1cc(NC(=O)c2cc(F)cc(C(F)(F)F)c2)c2c(c1)C(=O)NC2c1cc(F)ccc1Cl (centres unmarked) [Compound I-924]	≤ 100 nM	< 1000 nM
O=C(Nc1cc(CC2(O)CNC2)cc2c1C(c1cc(F)ccc1Cl)NC2=O)c1cc(F)cc(C(F)(F)F)c1 (centres unmarked) [Compound I-926]	≤ 100 nM	10000 to 36000 nM
Cc1cc(-c2cc(NC(=O)c3cc(F)cc(C(F)(F)F)c3)c3c(c2)C(=O)NC3c2cc(F)ccc2Cl)cc2cnn(C)c12 (centres unmarked) [Compound I-927]	100 to 500 nM	5000 to 10000 nM

Compound	IC50 (H1047R PIK3CA enzyme)	IC50 (cells)
N#Cc1ccc(-c2cc(NC(=O)c3cc(F)cc(C(F)(F)F)c3)c3c(c2)C(=O)NC3c2cc(F)ccc2Cl)cn1 (centres unmarked) [Compound I-928]	≤ 100 nM	< 1000 nM
O=C(Nc1cc(-c2ccc(N3CCOCC3)nc2)cc2c1C(c1cc(F)ccc1Cl)NC2=O)c1cc(F)cc(C(F)(F)F)c1 (centres unmarked) [Compound I-929]	≤ 100 nM	< 1000 nM
O=C(Nc1cc(-c2cnc(N3CCOCC3)nc2)cc2c1C(c1cc(F)ccc1Cl)NC2=O)c1cc(F)cc(C(F)(F)F)c1 (centres unmarked) [Compound I-930]	≤ 100 nM	1000 to 5000 nM
O=C(Nc1cc(-c2cccc3ncccc23)cc2c1C(c1cc(F)ccc1Cl)NC2=O)c1cc(F)cc(C(F)(F)F)c1 (centres unmarked) [Compound I-931]	≤ 100 nM	< 1000 nM
O=C(Nc1cc(-c2ccc3c(c2)OCCO3)cc2c1C(c1cc(F)ccc1Cl)NC2=O)c1cc(F)cc(C(F)(F)F)c1 (centres unmarked) [Compound I-932]	100 to 500 nM	1000 to 5000 nM
Cc1cc2cnn(C)c2cc1-c1cc(NC(=O)c2cc(F)cc(C(F)(F)F)c2)c2c(c1)C(=O)NC2c1cc(F)ccc1Cl (centres unmarked) [Compound I-933]	100 to 500 nM	5000 to 10000 nM
O=C(Nc1cc(-c2ccnc3ccccc23)cc2c1C(c1cc(F)ccc1Cl)NC2=O)c1cc(F)cc(C(F)(F)F)c1 (centres unmarked) [Compound I-934]	≤ 100 nM	< 1000 nM
O=C(Nc1cc(-c2cnoc2)cc2c1C(c1cc(F)ccc1Cl)NC2=O)c1cc(F)cc(C(F)(F)F)c1 (centres unmarked) [Compound I-935]	≤ 100 nM	< 1000 nM
O=C(Nc1cc(-c2n[nH]c3cccnc23)cc2c1C(c1cc(F)ccc1Cl)NC2=O)c1cc(F)cc(C(F)(F)F)c1 (centres unmarked) [Compound I-936]	≤ 100 nM	< 1000 nM
O=C(Nc1cc(-c2n[nH]c3ccccc23)cc2c1C(c1cc(F)ccc1Cl)NC2=O)c1cc(F)cc(C(F)(F)F)c1 (centres unmarked) [Compound I-937]	100 to 500 nM	1000 to 5000 nM
O=C(Nc1cc(-c2n[nH]c3ncccc23)cc2c1C(c1cc(F)ccc1Cl)NC2=O)c1cc(F)cc(C(F)(F)F)c1 (centres unmarked) [Compound I-939]	≤ 100 nM	< 1000 nM
O=C(Nc1cc(-c2cnc3cnccn23)cc2c1C(c1cc(F)ccc1Cl)NC2=O)c1cc(F)cc(C(F)(F)F)c1 (centres unmarked) [Compound I-940]	≤ 100 nM	< 1000 nM
CC(C)(O)c1ncc(-c2cc(NC(=O)c3cc(F)cc(C(F)(F)F)c3)c3c(c2)C(=O)NC3c2cc(F)ccc2Cl)cn1 (centres unmarked) [Compound I-941]	100 to 500 nM	< 1000 nM
O=C(Nc1cc(-c2cnn(C3CC3)c2)cc2c1C(c1cc(F)ccc1Cl)NC2=O)c1cc(F)cc(C(F)(F)F)c1 (centres unmarked) [Compound I-942]	≤ 100 nM	< 1000 nM
CC(C)(C)OC(=O)N1CC(n2cc(-c3cc(NC(=O)c4cc(F)cc(C(F)(F)F)c4)c4c(c3)C(=O)NC4c3cc(F)ccc3Cl)cn2)C1 (centres unmarked) [Compound I-944]	≤ 100 nM	5000 to 10000 nM
O=C(Nc1cc(-c2cn3ccnc3cn2)cc2c1C(c1cc(F)ccc1Cl)NC2=O)c1cc(F)cc(C(F)(F)F)c1 (centres unmarked) [Compound I-946]	≤ 100 nM	< 1000 nM
Cn1ccc(-c2cc(NC(=O)c3cc(F)cc(C(F)(F)F)c3)c3c(c2)C(=O)NC3c2cc(F)ccc2Cl)n1 (centres unmarked) [Compound I-947]	≤ 100 nM	< 1000 nM
O=C(Nc1cc(-c2cnc3ccccc3n2)cc2c1C(c1cc(F)ccc1Cl)NC2=O)c1cc(F)cc(C(F)(F)F)c1 (centres unmarked) [Compound I-948]	≤ 100 nM	< 1000 nM
O=C(Nc1cc(-c2cc3cnccc3[nH]2)cc2c1C(c1cc(F)ccc1Cl)NC2=O)c1cc(F)cc(C(F)(F)F)c1 (centres unmarked) [Compound I-949]	≤ 100 nM	1000 to 5000 nM
O=C1NC(c2cc(F)ccc2Cl)c2c(Nc3nccc4c(Cl)cc(F)cc34)cc(Br)cc21 (centres unmarked) [Compound I-959]	100 to 500 nM	< 1000 nM
O=C(Nc1cc(-n2cccn2)cc2c1C(c1cc(F)ccc1Cl)NC2=O)c1cc(F)cc(C(F)(F)F)c1 (centres unmarked) [Compound I-960]	≤ 100 nM	< 1000 nM
O=C(Nc1cc(Nc2ncco2)cc2c1C(c1cc(F)ccc1Cl)NC2=O)c1cc(F)cc(C(F)(F)F)c1 (centres unmarked) [Compound I-961]	≤ 100 nM	< 1000 nM
C[S+]([O-])Cc1cc(NC(=O)c2cc(F)cc(C(F)(F)F)c2)c2c(c1)C(=O)NC2c1cc(F)ccc1Cl (centres unmarked) [Compound I-962]	≤ 100 nM	< 1000 nM
Cc1coc(Nc2cc(NC(=O)c3cc(F)cc(C(F)(F)F)c3)c3c(c2)C(=O)NC3c2cc(F)ccc2Cl)n1 (centres unmarked) [Compound I-964]	≤ 100 nM	< 1000 nM
Cn1cc(Nc2cc(NC(=O)c3cc(F)cc(C(F)(F)F)c3)c3c(c2)C(=O)NC3c2cc(F)ccc2Cl)nn1 (centres unmarked) [Compound I-965]	≤ 100 nM	< 1000 nM
Cc1nc(Nc2cc(NC(=O)c3cc(F)cc(C(F)(F)F)c3)c3c(c2)C(=O)NC3c2cc(F)ccc2Cl)oc1C (centres unmarked) [Compound I-966]	≤ 100 nM	< 1000 nM
O=C(Nc1cc(-c2cncnc2)cc2c1C(c1cc(F)ccc1Cl)NC2=O)c1cc(F)cc(C(F)(F)F)c1 (centres unmarked) [Compound I-967]	≤ 100 nM	< 1000 nM
